Results from US12599575B2, “Antimicrobial adjuvant containing biphenyl derivative compound as active ingredient, and uses thereof” (KOREA RESEARCH INSTITUTE OF BIOSCIENCE AND BIOTECHNOLOGY, priority 2021, dated 2026).
Entries after “also recorded” stand apart in the source; their conditions may differ.

Test system: Acinetobacter baumannii colistin resistance 357 (R357 strains)
Assay type: cell-based

Compound | cell growth inhibitory effect (respiration rate), PA108 alone (PA108 5 μM alone) | bacterial growth inhibitory effect (relative respiration rate) in combination with PMB (compound 5 μM + PMB 16 μg/mL, 37° C., 24 hours) | cell growth inhibitory effect (respiration rate), PMB alone (PMB 16 μg/mL alone)
Cc1cc([N+](=O)[O-])cc(-c2ccc(Cl)cc2)c1O [PA108] | no self cell growth inhibitory effect | an activity to improve bacterial susceptibility to a polymyxin-based antibiotic; also recorded: cellular respiration was effectively inhibited | 
polymyxin B [PMB, reference compound] |  |  | no cell growth inhibitory effect
